# Values of other authors as cited in US20060269513A1, “Pheromone composition” (Kiotech Limited, priority 1997, published 2006).
# Tested on: humans
# Conditions: human olfactory threshold
row,SMILES,Threshold concentration for humans (odour)
1,"NCCCCN [putrescine, 1,4-diaminobutane]",in the ppb range
2,CCCCC(C)CCC(=O)O (stereo not shown) [4-Methyloctanoic acid],in the region of ppb
3,CN(C)C [Trimethylamine],about 1 ppb
4,C[C@]12CC[C@@H](O)C[C@@H]1CC[C@@H]1[C@@H]2CC[C@]2(C)C=CC[C@@H]12 [5-alpha-androst-16-en-3-α-ol],in the low ppb range
